Results reported in patent US20230265151A1, “GIP/GLP1 CO-AGONIST COMPOUNDS” (priority 2020, published 2023).
Read-outs that look alike come from different tables or passages of the source. *1 amine or outer side, *2 acyl side, *3 side chain or, on linkers, in order; H or OH if unused. Where a SMILES comes first, the peptide text is derived from it. Side-chain parts run from the residue outwards. [ ]: non-standard residue; d: D form. The star is where a group is joined. αMePhe(2-F) = C[C@](N)(Cc1ccccc1F)C(=O)O; γGlu = O=C(O)[C@H](CCC(=O)[*:2])N[*:1]; C14 diacid = O=C(O)CCCCCCCCCCCCC(=O)*; αMeY = C[C@](N)(Cc1ccc(O)cc1)C(=O)O; 4Pal = N[C@@H](Cc1ccncc1)C(=O)O; αMeL = CC(C)C[C@](C)(N)C(=O)O; Orn = NCCC[C@H](N)C(=O)O; AEEA = NCCOCCOCC(=O)O; Aib = CC(C)(N)C(=O)O

Experiments:
Assay type in all cases: cell-based
hGCGR = target: T1, hGCGR (Homo sapiens, UniProt P47871); experiment: Functional cAMP formation (HTRF) in HEK-293 clonal cells expressing hGCGR, 0.1% bovine casein, without or with 1.0% human serum albumin; conditions: geometric mean
T1 construct: expressed in transfected cells
T1 sequence (P47871 26-477): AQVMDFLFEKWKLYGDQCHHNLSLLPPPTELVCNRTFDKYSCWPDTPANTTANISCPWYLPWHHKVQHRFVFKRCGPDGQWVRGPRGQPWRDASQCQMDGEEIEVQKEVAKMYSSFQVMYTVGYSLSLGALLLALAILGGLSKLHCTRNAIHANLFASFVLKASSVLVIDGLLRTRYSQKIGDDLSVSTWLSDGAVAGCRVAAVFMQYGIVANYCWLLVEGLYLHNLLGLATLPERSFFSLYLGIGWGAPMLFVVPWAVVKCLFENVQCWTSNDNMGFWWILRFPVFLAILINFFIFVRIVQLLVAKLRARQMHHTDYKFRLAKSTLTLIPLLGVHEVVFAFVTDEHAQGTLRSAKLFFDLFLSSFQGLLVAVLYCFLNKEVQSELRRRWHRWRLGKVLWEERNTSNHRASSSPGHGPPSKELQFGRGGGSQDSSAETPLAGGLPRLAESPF
Method in brief: (§1)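 Readings of the HTRF 665/620 nm ratio, which falls as cAMP rises, were converted to nM cAMP using a standard curve after 30 min peptide exposure at 37° C.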

hGIPR = target: T2, hGIPR (Homo sapiens, UniProt P48546); experiment: Functional cAMP formation (HTRF) in HEK-293 clonal cells expressing hGIPR, 0.1% bovine casein, without or with 1.0% human serum albumin; conditions: for EC50: geometric mean, read-out: hGIPR EC50, nM (SEM, n)
T2 construct: expressed in transfected cells
T2 sequence (P48546 22-466): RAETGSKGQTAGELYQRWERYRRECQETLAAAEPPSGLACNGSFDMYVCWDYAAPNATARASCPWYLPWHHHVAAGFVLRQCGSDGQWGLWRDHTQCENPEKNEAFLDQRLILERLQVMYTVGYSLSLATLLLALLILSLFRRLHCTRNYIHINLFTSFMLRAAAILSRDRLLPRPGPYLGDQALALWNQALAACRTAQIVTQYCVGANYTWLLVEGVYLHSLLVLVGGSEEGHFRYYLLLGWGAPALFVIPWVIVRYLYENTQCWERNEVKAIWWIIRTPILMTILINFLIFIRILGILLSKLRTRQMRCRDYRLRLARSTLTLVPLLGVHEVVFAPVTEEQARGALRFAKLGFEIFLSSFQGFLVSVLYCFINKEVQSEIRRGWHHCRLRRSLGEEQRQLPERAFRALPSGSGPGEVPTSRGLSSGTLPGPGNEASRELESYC
Method in brief: as §1

hGLP-1R = hGLP-1R (Homo sapiens, UniProt P43220); experiment: Functional cAMP formation (HTRF) in HEK-293 clonal cells expressing hGLP-1R, 0.1% bovine casein, without or with 1.0% human serum albumin; parameters: expressed in transfected cells; conditions: for EC50: geometric mean
hGLP-1R, sequence (P43220 24-463): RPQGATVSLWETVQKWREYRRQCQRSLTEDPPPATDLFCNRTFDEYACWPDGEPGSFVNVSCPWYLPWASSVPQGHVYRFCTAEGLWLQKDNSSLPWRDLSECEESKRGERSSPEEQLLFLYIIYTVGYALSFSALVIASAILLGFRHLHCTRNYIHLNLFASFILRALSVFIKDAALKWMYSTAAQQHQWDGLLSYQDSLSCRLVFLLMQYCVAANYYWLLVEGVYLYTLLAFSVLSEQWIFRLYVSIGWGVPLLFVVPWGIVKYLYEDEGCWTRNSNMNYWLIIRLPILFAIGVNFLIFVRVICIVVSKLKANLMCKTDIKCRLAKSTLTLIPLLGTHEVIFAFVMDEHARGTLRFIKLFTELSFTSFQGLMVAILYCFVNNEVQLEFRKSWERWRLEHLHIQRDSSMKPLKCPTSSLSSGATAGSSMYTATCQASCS
Method in brief: as §1

[1] = 0.1% bovine casein and 1.0% human serum albumin, 37° C., read-out: hGCGR EC50, nM (SEM, n)
[2] = cAMP, incubated at 37° C., 0.1% bovine casein (no human serum albumin), read-out: hGCGR EC50, nM (SEM, n)
[3] = 0.1% bovine casein and 1.0% human serum albumin, 37° C.
[4] = HEK293, 0.1% bovine casein and 1.0% human serum albumin, 37° C., percent of maximal response to GIP(1-42)NH2, read-out: hGIPR Emax, % ± SEM
[5] = HEK293, percent of maximal response to GIP(1-42)NH2, 37° C., 0.1% bovine casein, arithmetic mean, read-out: hGIPR Emax, % ± SEM
[6] = cAMP, incubated at 37° C., 0.1% bovine casein (no human serum albumin)
[7] = HEK293, 0.1% bovine casein and 1.0% human serum albumin, 37° C., percent of maximal response to GLP-1(7-36)NH2, read-out: hGLP-1R Emax, % ± SEM
[8] = HEK293, percent of maximal response to GLP-1(7-36)NH2, 37° C., 0.1% bovine casein, arithmetic mean, read-out: hGLP-1R Emax, % ± SEM
[9] = cAMP, incubated at 37° C., 0.1% bovine casein (no human serum albumin), read-out: hGLP-1R EC50, nM (SEM, n)

EC50 (hGLP-1R; 0.1% bovine casein and 1.0% human serum albumin, 37° C., read-out: hGLP-1R EC50, nM (SEM, n)) [nM]	Compound	EC50 (hGCGR; [1]) [nM]	EC50 (hGCGR; [2]) [nM]	EC50 (hGIPR; [3]) [nM]	Emax (hGIPR; [4]) [%]	Emax (hGIPR; [5]) [%]	EC50 (hGIPR; [6]) [nM]	Emax (hGLP-1R; [7]) [%]	Emax (hGLP-1R; [8]) [%]	EC50 (hGLP-1R; [9]) [nM]	EC50 (hGCGR; hGCGR EC50, nM (SEM, n), cAMP, incubated at 37° C., 0.1% bovine casein (no human serum albumin)) [nM]	Emax (hGIPR; HEK293, read-out: hGIPR Emax, % ± SEM, percent of maximal response to GIP(1-42)NH2, 37° C., 0.1% bovine casein, arithmetic mean) [%]	Emax (hGLP-1R; HEK293, read-out: hGLP-1R Emax, % ± SEM, percent of maximal response to GLP-1(7-36)NH2, 37° C., 0.1% bovine casein, arithmetic mean) [%]	EC50 (hGLP-1R; hGLP-1R EC50, nM (SEM, n), cAMP, incubated at 37° C., 0.1% bovine casein (no human serum albumin)) [nM]
119	CC[C@H](C)[C@H](NC(=O)[C@H](CC(C)C)NC(=O)[C@](C)(Cc1ccc(O)cc1)NC(=O)[C@@H](CCC(=O)O)NC(=O)[C@@H](NC(=O)[C@H](Cc1ccccc1)NC(=O)[C@H](CCC(=O)O)NC(=O)C(C)(C)NC(=O)[C@H](CCC(N)=O)NC(=O)[C@H](C)NC(=O)[C@H](CCCCNC(=O)COCCOCCNC(=O)COCCOCCNC(=O)CC[C@H](NC(=O)CCCCCCCCCCCCC(=O)O)C(=O)O)NC(=O)[C@H](CCCN)NC(=O)[C@H](CC(=O)O)NC(=O)[C@H](CC(C)C)NC(=O)[C@](C)(CC(C)C)NC(=O)[C@@H](NC(=O)[C@H](CO)NC(=O)[C@H](Cc1ccncc1)NC(=O)[C@H](CC(=O)O)NC(=O)[C@H](CO)NC(=O)[C@@H](NC(=O)[C@](C)(Cc1ccccc1F)NC(=O)[C@@H](NC(=O)CNC(=O)[C@H](CCC(=O)O)NC(=O)C(C)(C)NC(=O)[C@@H](N)Cc1ccc(O)cc1)[C@@H](C)O)[C@@H](C)O)[C@@H](C)CC)[C@@H](C)CC)C(=O)N[C@@H](CCC(=O)O)C(=O)NCC(=O)NCC(=O)N[C@@H](CCCCNC(=O)COCCOCCNC(=O)COCCOCCNC(=O)CC[C@H](NC(=O)CCCCCCCCCCCCC(=O)O)C(=O)O)C(N)=O [Example 184] (H-Y[Aib]EGT[αMePhe(2-F)]TSD[4Pal]SI[αMeL]LD[Orn]K([AEEA-AEEA-γGlu-C14 diacid])AQ[Aib]EFI[dE][αMeY]LIEGGK([AEEA-AEEA-γGlu-C14 diacid])-NH2)	> 9950	> 9950	2.46	81.2	95.2 ± 1.13	0.0354	87.8	96.8 ± 12	1.82				
	CC[C@H](C)[C@H](NC(=O)[C@H](CC(C)C)NC(=O)[C@](C)(Cc1ccc(O)cc1)NC(=O)[C@H](CCCCNC(=O)COCCOCCNC(=O)COCCOCCNC(=O)CC[C@H](NC(=O)CCCCCCCCCCCCC(=O)O)C(=O)O)NC(=O)[C@@H](NC(=O)[C@H](Cc1ccccc1)NC(=O)[C@H](CCC(=O)O)NC(=O)C(C)(C)NC(=O)[C@H](CCC(N)=O)NC(=O)[C@H](C)NC(=O)[C@H](CCCCNC(=O)COCCOCCNC(=O)COCCOCCNC(=O)CC[C@H](NC(=O)CCCCCCCCCCCCC(=O)O)C(=O)O)NC(=O)[C@H](CCCN)NC(=O)[C@H](CC(=O)O)NC(=O)[C@H](CC(C)C)NC(=O)[C@](C)(CC(C)C)NC(=O)[C@@H](NC(=O)C(C)(C)NC(=O)[C@@H](NC(=O)[C@H](CC(=O)O)NC(=O)[C@H](CO)NC(=O)[C@@H](NC(=O)[C@](C)(Cc1ccccc1)NC(=O)[C@@H](NC(=O)CNC(=O)[C@H](CCC(=O)O)NC(=O)C(C)(C)NC(=O)[C@@H](N)Cc1ccc(O)cc1)[C@@H](C)O)[C@@H](C)O)C(C)C)[C@@H](C)CC)[C@@H](C)CC)C(=O)N[C@@H](CCC(=O)O)C(=O)NCC(=O)NCC(=O)N1CCC[C@H]1C(=O)N[C@@H](CO)C(=O)N[C@@H](CO)C(=O)NCC(=O)N[C@@H](C)C(=O)N1CCC[C@H]1C(=O)N1CCC[C@H]1C(=O)N1CCC[C@H]1C(=O)N[C@@H](CO)C(N)=O [Example 182]										> 9950	89	96.9	0.185
	CC[C@H](C)[C@H](NC(=O)[C@H](CC(C)C)NC(=O)[C@](C)(Cc1ccc(O)cc1)NC(=O)[C@@H](CCC(=O)O)NC(=O)[C@@H](NC(=O)[C@H](Cc1ccccc1F)NC(=O)[C@H](CCC(=O)O)NC(=O)C(C)(C)NC(=O)[C@H](CCC(N)=O)NC(=O)[C@H](C)NC(=O)[C@H](CCCCNC(=O)COCCOCCNC(=O)COCCOCCNC(=O)CC[C@H](NC(=O)CCCCCCCCCCCCC(=O)O)C(=O)O)NC(=O)[C@H](CCCN)NC(=O)[C@H](CC(=O)O)NC(=O)[C@H](CC(C)C)NC(=O)[C@](C)(CC(C)C)NC(=O)[C@@H](NC(=O)[C@H](CO)NC(=O)[C@H](Cc1ccncc1)NC(=O)[C@H](CC(=O)O)NC(=O)[C@H](CO)NC(=O)[C@@H](NC(=O)[C@](C)(Cc1ccccc1F)NC(=O)[C@@H](NC(=O)CNC(=O)[C@H](CCC(=O)O)NC(=O)C(C)(C)NC(=O)[C@@H](N)Cc1ccc(O)cc1)[C@@H](C)O)[C@@H](C)O)[C@@H](C)CC)[C@@H](C)CC)C(=O)N[C@@H](CCC(=O)O)C(=O)NCC(=O)NCC(=O)N[C@@H](CCCCNC(=O)COCCOCCNC(=O)COCCOCCNC(=O)CC[C@H](NC(=O)CCCCCCCCCCCCC(=O)O)C(=O)O)C(=O)N[C@@H](CO)C(=O)N[C@@H](CO)C(=O)NCC(=O)N[C@@H](C)C(=O)N1CCC[C@H]1C(=O)N1CCC[C@H]1C(=O)N1CCC[C@H]1C(=O)N[C@@H](CO)C(N)=O [Example 63]	> 9950	> 9950	0.771			0.0176	98	90.6					
	CC[C@H](C)[C@H](NC(=O)[C@H](CC(C)C)NC(=O)[C@](C)(Cc1ccc(O)cc1)NC(=O)[C@@H](CCC(=O)O)NC(=O)[C@@H](NC(=O)[C@H](Cc1ccccc1)NC(=O)[C@H](CCC(=O)O)NC(=O)C(C)(C)NC(=O)[C@H](CCC(N)=O)NC(=O)[C@H](C)NC(=O)[C@H](CCCCNC(=O)COCCOCCNC(=O)COCCOCCNC(=O)CC[C@H](NC(=O)CCCCCCCCCCCCC(=O)O)C(=O)O)NC(=O)[C@H](CCCN)NC(=O)[C@H](CC(=O)O)NC(=O)[C@H](CC(C)C)NC(=O)[C@](C)(CC(C)C)NC(=O)[C@@H](NC(=O)[C@H](CO)NC(=O)[C@H](Cc1cscn1)NC(=O)[C@H](CC(=O)O)NC(=O)[C@H](CO)NC(=O)[C@@H](NC(=O)[C@](C)(Cc1ccccc1F)NC(=O)[C@@H](NC(=O)CNC(=O)[C@H](CCC(=O)O)NC(=O)C(C)(C)NC(=O)[C@@H](N)Cc1ccc(O)cc1)[C@@H](C)O)[C@@H](C)O)[C@@H](C)CC)[C@@H](C)CC)C(=O)N[C@@H](CCC(=O)O)C(=O)NCC(=O)NCC(=O)N[C@@H](CCCCNC(=O)COCCOCCNC(=O)COCCOCCNC(=O)CC[C@H](NC(=O)CCCCCCCCCCCCC(=O)O)C(=O)O)C(=O)N[C@@H](CO)C(=O)N[C@@H](CO)C(=O)NCC(=O)N[C@@H](C)C(=O)N1CCC[C@H]1C(=O)N1CCC[C@H]1C(=O)N1CCC[C@H]1C(=O)N[C@@H](CO)C(N)=O [Example 144]		> 9950			90	0.0193		97	3.47				
	CC[C@H](C)[C@H](NC(=O)[C@H](CC(C)C)NC(=O)[C@](C)(Cc1ccc(O)cc1)NC(=O)[C@@H](CCC(=O)O)NC(=O)[C@@H](NC(=O)[C@](C)(Cc1ccccc1)NC(=O)[C@H](CCC(=O)O)NC(=O)C(C)(C)NC(=O)[C@H](CCC(N)=O)NC(=O)[C@H](C)NC(=O)[C@H](CCCCNC(=O)COCCOCCNC(=O)COCCOCCNC(=O)CC[C@H](NC(=O)CCCCCCCCCCCCC(=O)O)C(=O)O)NC(=O)[C@H](CCCN)NC(=O)[C@H](CC(=O)O)NC(=O)[C@H](CC(C)C)NC(=O)[C@](C)(CC(C)C)NC(=O)[C@@H](NC(=O)[C@H](CO)NC(=O)C1(NC(=O)[C@H](CC(=O)O)NC(=O)[C@H](CO)NC(=O)[C@@H](NC(=O)[C@](C)(Cc2ccccc2F)NC(=O)[C@@H](NC(=O)CNC(=O)[C@H](CCC(=O)O)NC(=O)C(C)(C)NC(=O)[C@@H](N)Cc2ccc(O)cc2)[C@@H](C)O)[C@@H](C)O)CCCC1)[C@@H](C)CC)[C@@H](C)CC)C(=O)N[C@@H](CCC(=O)O)C(=O)NCC(=O)NCC(=O)N[C@@H](CCCCNC(=O)COCCOCCNC(=O)COCCOCCNC(=O)CC[C@H](NC(=O)CCCCCCCCCCCCC(=O)O)C(=O)O)C(=O)N[C@@H](CO)C(=O)N[C@@H](CO)C(=O)NCC(=O)N[C@@H](C)C(=O)N1CCC[C@H]1C(=O)N1CCC[C@H]1C(=O)N1CCC[C@H]1C(=O)N[C@@H](CO)C(N)=O [Example 94]	> 9950	> 9950		97.1	91	0.0132	113	97.4	2.1				
